Test results taken from patent US8790665B2, “Serum protein-based detection of random sequence polymer compositions” (Ares Trading SA, priority 2009, dated 2014).
“Also recorded” adds a separate entry of the source.

Assays:
[1] = YEAK in the serum of mice dosed IV or SC, detected by anti-YEAK ELISA; format: in vivo; conditions: FIG. 4
[2] = target: HLA-DR1 (DRB1*0101) (Homo sapiens, UniProt P01903+P01911, A100R/D57E/F55L/F60I/F76Y/I96L/L162R/M171V/P40L/Q125E/R42F/V115G/Y59C); conditions: peptide-specific manner; cited from earlier work
[3] = tested on: CCL22; test: Acute release of CCL22 (MDC) in serum or plasma after YEAK administration in mice; format: in vivo; conditions: FIG. 5
[4] = tested on: serum proteins; test: Identification of serum proteins bound to PI-2301 or Cop-1 (ELISA / CNBr-Sepharose capture, LC-MS/MS); format: binding, human; conditions: for serum proteins identified as bound: LC-MS/MS of tryptic digest, samples from Example 1 or 2; for binding to the serum proteins listed in Table C: normal human serum, direct ELISA
Description: As a non-limiting example of the above described identification, PI-2301 or Cop-1 may be used in a direct ELISA assay (see Materials and Methods) to identify serum proteins that bind to the RSP composition comprising YFAK or YEAK peptides. […] It has been observed that YEAK and YFAK peptides have different binding specificities; conversely, serum proteins can be said to bind YEAK and YFAK peptides with different specificities. Tables D and E list serum proteins which associate with HDL and LDL, respectively. Any serum proteins may bind to the RSP composition described herein by varying affinities and selectivities.
An uncoated ELISA plate was blocked with PBS/0.1% Tween 20 for 2 hours at room temperature. PI-2301 or Cop-1 samples were serially diluted in PBS/5% normal human serum and added to the blocked and washed wells of the ELISA plate. The PI-2301 or Cop-1 in normal human serum was bound to the plate and unbound PI-2301 or Cop-1 was removed by washing the plate with PBS/0.05% Tween 20. Protein-A-purified anti-rabbit anti-PI-2301 or anti-rabbit anti-Cop-1, diluted to a suitable concentration based on the titer, was added for 1 hr at RT. After another wash step to remove the unbound rabbit anti-2301 or rabbit anti-Cop-1 antibodies, a secondary antibody, a goat anti-rabbit IgG-HRP (horse radish peroxidase conjugated antibody to rabbit IgG) was added to the well. After washing away any unbound secondary antibody, substrate for HRP was added to the wells and incubated for 15 minutes, which yielded a blue color that turns yellow when stop solution is added, the intensity of which color correlates with the amount of total PI-2301 or Cop-1 in the well. The optical density was measured at 450 nm with a ELISA plate reader and a titer curve was generated for each set of the serum samples spiked with PI-2301 and Cop-1, respectively. The limit of serum PI-2301 or serum Cop-1 detection is defined as the concentration which results in a A450 nm absorption which is 3 times above background. […]
Immobilized RSP compositions were prepared by reacting the peptides with CNBr-activated Sepharose®, a pre-activated large pore chromatography medium used for immobilizing ligands (proteins, peptides, nucleic acids) containing primary amines using the cyanogens bromide method. […] After pH neutralization, the absorbance at 280 nm of the eluted fractions was read to identify fractions containing the ligands. […]
Samples containing PI-2301 binding proteins or Cop-1 binding proteins were obtained by the method of Example 1 or Example 2. These samples were then enzymatically digested and analyzed by liquid chromatography tandem mass spectrometry (LC-MS/MS) for the purpose of identify the proteins which bind PI-2301 or Cop-1. […]

[5] = target: HLA-DR4 (DRB1*0401) (Homo sapiens, UniProt P01903+P01911, A100K/A169T/F76Y/I96L/K127E/L162R/M171V/N62H/P40V/Q125Y/R42H/S133A/S149N/S66Y/V115G/V209L/W38E); conditions: peptide-specific manner; cited from earlier work
[6] = tested on: Ig fraction of rabbit polyserum; test: ELISA with Ig fraction of rabbit polyserum; format: binding; conditions: FIG. 13
[7] = tested on: RAW264.7; test: Bioassay: CCL22 release by monocyte cell line RAW264.7; format: cell-based; conditions: RAW264.7 cells exposed to copolymer; FIGS. 10, 15
Procedure: Following synthesis of RSP compositions of different lengths, for example by solid phase synthesis or by solution phase synthesis, the individual lots or batches made by the same manufacturing process, and individual batches of mixtures manufactured by different processes are tested and compared for variation using bioassays such as the release of CCL22 by the monocyte cell line RAW264.7, by ex vivo proliferation assays, and by measuring the binding of serum proteins to peptides in the RSP composition, it is possible to determine subsets of peptides or even individual peptides that are present in any given process or lot. Processes and lots of RSP compositions will be compared to determine whether the same subsets of peptides and/or types of peptides are consistently represented across the different processes and lots.

[8] = target: HLA-DR2 (DRB1*1501) (Homo sapiens, UniProt P01903+P01911); conditions: peptide-specific manner; cited from earlier work
[9] = several hours after subcutaneous administration; various species, including man; cited from earlier work
[10] = Serum concentration / exposure of PI-2301 compared with Cop-1; conditions: in vivo
Description: Certain RSP compositions persist much longer in the serum and other biological fluids than other mixtures. For example, a preparation of YFAK, PI-2301, is found at 10 times the serum concentration in comparison to Cop-1 administered at the same initial weight-by-volume concentration (US App. Pub. 2009-0275496). In some instances, the administered peptides are sequestered by or bound to some in vivo component in situ, the result of which is longer half-life in that environment, with or without enhancement in bioavailability. In certain embodiment, the environment is blood plasma or lymph. In an alternative embodiment, the environment is spinal or cerebral fluid. In yet other embodiments, the environment is any tissue or organ locale to which peptides from RSP compositions are delivered.
Without wishing to be bound by theory, mechanistically, binding of peptides within RSP compositions, (e.g. PI-2301 and Cop-1) to the serum proteins such as lipoproteins found associated with HDL and LDL might facilitate their capture by monocytes through receptors such as SR-BI or ABCA1. This binding may induce activation of monocytes and their differentiation into anti-inflammatory cells. PI-2301 and Cop-1 differ in binding to serum proteins (see FIG. 3). […]

[11] = administered at the same initial weight-by-volume concentration; cited from earlier work
[12] = tested on: preclinical models of multiple sclerosis and Crohn's disease; test: Efficacy in preclinical models of multiple sclerosis and Crohn's disease; format: in vivo
Description: Without wishing to be bound by theory, mechanistically, binding of peptides within RSP compositions, (e.g. PI-2301 and Cop-1) to the serum proteins such as lipoproteins found associated with HDL and LDL might facilitate their capture by monocytes through receptors such as SR-BI or ABCA1. This binding may induce activation of monocytes and their differentiation into anti-inflammatory cells. PI-2301 and Cop-1 differ in binding to serum proteins (see FIG. 3). One reason for the difference is that Cop-1 and generic variants of glatiramer acetates are made by solution phase peptide synthesis, thus significant variations in composition may be observed from lot to lot. In contrast, PI-2301 is manufactured by solid phase synthesis. […] Thus, the great majority of the PI-2301 52-mer peptides in the mixture is likely to be functional. Cop-1 has a much broader molecular weight distribution, making it likely that some species of the mixture, such as small peptide species, in the mixture are ineffective.

Row | maximum serum concentration ([1]; mice dosed IV with 4 mg/kg or SC with 21 mg/kg, route for this value not stated) | time of maximum serum concentration ([1]; post dosing, mice IV 4 mg/kg or SC 21 mg/kg) | binding to the serum proteins listed in Table C [4] | serum exposure compared with Cop-1 [10] | Substance | binding affinity to purified HLA-DR1 (DRB1*0101) [2] | relation between SC dose and observed maximum CCL22 plasma concentration [3] | serum proteins identified as bound [4] | binding affinity to purified HLA-DR4 (DRB1*0401) [5] | recognition by Ig fraction of rabbit polyserum [6] | CCL22 release [7] | binding affinity to purified HLA-DR2 (DRB1*1501) [8] | detection in serum [9] | serum concentration in comparison to Cop-1 [11] | efficacy (potency) compared with Cop-1 [12]
1 | 1800 ng/mL | around 15 min | experimentally shown to bind |  | glatiramer acetate [Cop-1] | binds with high affinity | linear correlation | several lipoproteins from the HDL and LDL complexes; also recorded: complement proteins such as C3 and C4A | binds with high affinity | interacts strongly | released CCL22 in a concentration dependent manner | binds with high affinity | can be detected |  | 
2 |  |  | experimentally shown to bind | greater serum exposure | plovamer [PI-2301] |  |  | several lipoproteins from the HDL and LDL complexes |  |  |  |  | can be detected | 10 times | more potent than Cop-1
